21 compounds from patent US20210070748A1, “INHIBITORS OF BRUTONS TYROSINE KINASE” (Pharmacyclics LLC, priority 2015, published 2021) can be followed below.

Molecules are shown by their SMILES. Where two headings read alike, the source gives them in different places.

In one experiment the target is T1, BTK-WT (Homo sapiens, UniProt Q06187).
T1 construct: purified from insect cells as a full-length construct containing an N-terminal 6X-His tag; His6 (N); made in house; host or cells: insect cells (baculovirus Sf21 in Method B)
Description: Btk in vitro inhibitory activity (one of Method A TR-FRET, Method B electrophoretic mobility shift, Method C radiometric filter binding). The format is biochemical. Particulars: read-out: IC50 BTK-WT. (In general: Mobility shift assays separate free from complexed probe on a gel.)

Another experiment deals with T2, TEC (Homo sapiens, UniProt P42680).
T2 sequence (P42680 1-631): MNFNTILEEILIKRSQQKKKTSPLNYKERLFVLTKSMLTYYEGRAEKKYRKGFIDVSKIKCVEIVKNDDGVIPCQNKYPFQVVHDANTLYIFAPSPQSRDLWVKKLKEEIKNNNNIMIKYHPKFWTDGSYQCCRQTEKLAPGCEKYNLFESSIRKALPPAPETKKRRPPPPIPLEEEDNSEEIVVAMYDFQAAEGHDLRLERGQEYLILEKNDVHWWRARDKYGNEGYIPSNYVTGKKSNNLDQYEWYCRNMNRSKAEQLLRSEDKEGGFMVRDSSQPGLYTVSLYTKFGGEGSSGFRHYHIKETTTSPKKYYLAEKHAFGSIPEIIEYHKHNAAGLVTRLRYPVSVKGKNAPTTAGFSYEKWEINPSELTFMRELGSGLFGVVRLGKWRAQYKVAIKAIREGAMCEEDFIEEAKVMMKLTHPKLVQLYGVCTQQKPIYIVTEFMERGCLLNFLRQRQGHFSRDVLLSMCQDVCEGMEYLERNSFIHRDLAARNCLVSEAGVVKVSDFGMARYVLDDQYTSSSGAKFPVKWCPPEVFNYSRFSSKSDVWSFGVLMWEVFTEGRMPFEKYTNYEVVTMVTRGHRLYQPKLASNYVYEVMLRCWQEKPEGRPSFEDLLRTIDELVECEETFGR
Description: Inhibition of a panel of kinases, in vitro HotSpot kinase assay: TEC. The format is biochemical. Here is the method: The degree of inhibition of a panel of kinases is determined using the in vitro HotSpot kinase assay (purified enzymes, ^33P-ATP, an appropriate substrate and 1 μM ATP).

[1] abbreviates: Table 13, A compounds, 1 μM ATP.

T1 sequence (Q06187 whole entry): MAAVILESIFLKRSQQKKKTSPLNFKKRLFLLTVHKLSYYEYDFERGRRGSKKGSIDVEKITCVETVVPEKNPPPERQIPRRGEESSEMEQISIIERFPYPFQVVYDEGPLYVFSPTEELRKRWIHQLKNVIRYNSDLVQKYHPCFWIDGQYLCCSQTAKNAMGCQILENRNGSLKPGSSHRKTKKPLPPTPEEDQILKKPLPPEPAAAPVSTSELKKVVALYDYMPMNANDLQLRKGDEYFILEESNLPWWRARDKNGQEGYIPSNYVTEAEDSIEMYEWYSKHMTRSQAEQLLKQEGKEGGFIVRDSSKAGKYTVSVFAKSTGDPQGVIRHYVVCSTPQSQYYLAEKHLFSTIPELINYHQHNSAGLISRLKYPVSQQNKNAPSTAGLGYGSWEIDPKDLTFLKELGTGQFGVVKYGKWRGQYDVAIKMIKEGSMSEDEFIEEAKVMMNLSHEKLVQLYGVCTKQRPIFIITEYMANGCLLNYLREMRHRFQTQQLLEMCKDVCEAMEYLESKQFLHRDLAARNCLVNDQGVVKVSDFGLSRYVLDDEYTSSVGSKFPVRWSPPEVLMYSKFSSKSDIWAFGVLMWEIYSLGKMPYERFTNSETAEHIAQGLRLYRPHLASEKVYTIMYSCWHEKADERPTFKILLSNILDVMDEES

In the case of `C=CC(=O)N1CCC[C@@H](Nc2nnc(C(N)=O)c(Nc3ccc(C4CCN(C(=O)CC)CC4)cc3)n2)C1` [Example E-45, (R)-3-(1-acryloylpiperidin-3-ylamino)-5-(4-(1-propionylpiperidin-4-yl)phenylamino)-1,2,4-triazine-6-carboxamide], the IC50 on BTK-WT (E compounds, Table 17) is not above 10 nM; against TEC (E compounds, Table 17), not above 10 nM.
Consider `C[C@@H]1[C@H](NC(=O)c2ccc(C3CC3)cc2)CCCN1c1cnc(C(N)=O)c(Nc2ccc(N3CCN(C)CC3)cc2)n1` [Example A-170, 5-[(2R,3R)-3-(4-cyclopropylbenzamido)-2-methylpiperidin-1-yl]-3-{[4-(4-methylpiperazin-1-yl)phenyl]amino}pyrazine-2-carboxamide], for which the IC50 on BTK-WT (Table 13, A compounds) is not above 10 nM; on TEC (setting [1]), 10 to 100 nM.
`C=CC(=O)N1CCC[C@@H](Nc2nnc(C(N)=O)c(Nc3ccc(C(C)(C)C)cc3)n2)C1` [Example E-24, (R)-3-(1-acryloylpiperidin-3-ylamino)-5-(4-tert-butylphenylamino)-1,2,4-triazine-6-carboxamide]: the IC50 at BTK-WT (E compounds, Table 17) was not above 10 nM; against TEC (E compounds, Table 17), not above 10 nM.
With `C=CC(=O)N1CC[C@@H](N(C)c2cnc(C(N)=O)c(Nc3ccc(C4CCN(C5CCCC5)CC4)cc3)n2)C1` [Example E-109, (R)-5-((1-acryloylpyrrolidin-3-yl)(methyl)amino)-3-(4-(1-cyclopentylpiperidin-4-yl)phenylamino)pyrazine-2-carboxamide], the half-inhibitory concentration (IC50) at BTK-WT (E compounds, Table 17) was not above 10 nM; at TEC (E compounds, Table 17) it was not above 10 nM.
Take `C=CC(=O)N1CC[C@@H](N(C)c2cnc(C(N)=O)c(Nc3ccc(C4CCN(C5CC5)CC4)cc3)n2)C1` [Example E-121, (R)-5-((1-acryloylpyrrolidin-3-yl)(methyl)amino)-3-(4-(1-cyclopropylpiperidin-4-yl)phenylamino)pyrazine-2-carboxamide]: the IC50 is not above 10 nM at BTK-WT (E compounds, Table 17) and not above 10 nM on TEC (E compounds, Table 17).
For `C[C@@H]1[C@H](NC(=O)c2cccc(C(C)(C)O)c2)CCCN1c1cnc(C(N)=O)c(Nc2cnn(C)c2)n1` [Example E-145, 5-((2R,3R)-3-(3-(2-hydroxypropan-2-yl)benzamido)-2-methylpiperidin-1-yl)-3-((1-methyl-1H-pyrazol-4-yl)amino)pyrazine-2-carboxamide], the IC50 was not above 10 nM at BTK-WT (E compounds, Table 17) and not above 10 nM at TEC (E compounds, Table 17).
Consider `C[C@@H]1[C@H](NC(=O)c2ccc(C3CC3)cc2F)CCCN1c1cnc(C(N)=O)c(Nc2ccc(C3(C)CCN(C4CCCC4)CC3)cc2)n1` [Example A-121, 3-{[4-(1-cyclopentyl-4-methylpiperidin-4-yl)phenyl]amino}-5-[(2R,3R)-3-(4-cyclopropyl-2-fluorobenzamido)-2-methylpiperidin-1-yl]pyrazine-2-carboxamide], for which the IC50 on BTK-WT (Table 13, A compounds) was not above 10 nM; against TEC (setting [1]) it was not above 10 nM.
Turning to `C=CC(=O)N1CCC[C@@H](N(C)c2cnc(C(N)=O)c(Nc3ccc(C(C)C)cc3)n2)C1` [Example E-102, (R)-5-((1-acryloylpiperidin-3-yl)(methyl)amino)-3-(4-isopropylphenylamino) pyrazine-2-carboxamide], the IC50 is not above 10 nM at BTK-WT (E compounds, Table 17) and not above 10 nM on TEC (E compounds, Table 17).
In the case of `C=CC(=O)N1CCC[C@@H](Nc2nnc(C(N)=O)c(Nc3cc(C)ns3)n2)C1` [Example E-11, (R)-3-(1-acryloylpiperidin-3-ylamino)-5-(3-methylisothiazol-5-ylamino)-1,2,4-triazine-6-carboxamide], the IC50 was not above 10 nM on BTK-WT (E compounds, Table 17) and not above 10 nM at TEC (E compounds, Table 17).
Turning to `Cc1nc(-c2ccc(C(=O)N[C@@H]3CCCN(c4cnc(C(N)=O)c(Nc5cnn(C)c5)n4)[C@@H]3C)cc2)cs1` [Example E-155, 3-((1-methyl-1H-pyrazol-4-yl)amino)-5-((2R,3R)-2-methyl-3-(4-(2-methylthiazol-4-yl)benzamido)piperidin-1-yl)pyrazine-2-carboxamide], the IC50 on BTK-WT (E compounds, Table 17) is not above 10 nM; against TEC (E compounds, Table 17), not above 10 nM.
For the compound `C[C@@H]1[C@H](NC(=O)c2cc(C(C)(C)C)nn2C)CCCN1c1cnc(C(N)=O)c(Nc2cnn(C)c2)n1` [Example E-146, 5-((2R,3R)-3-(3-(tert-butyl)-1-methyl-1H-pyrazole-5-carboxamido)-2-methylpiperidin-1-yl)-3-((1-methyl-1H-pyrazol-4-yl)amino)pyrazine-2-carboxamide], the IC50 is not above 10 nM at BTK-WT (E compounds, Table 17) and not above 10 nM against TEC (E compounds, Table 17).
As to `C[C@@H]1[C@H](NC(=O)c2ccc(C3CC3)cc2F)CCCN1c1cnc(C(N)=O)c(Nc2ccc(C3(C)CCN(C4CC4)CC3)cc2)n1` [Example A-174, 5-[(2R,3R)-3-(4-cyclopropyl-2-fluorobenzamido)-2-methylpiperidin-1-yl]-3-{[4-(1-cyclopropyl-4-methylpiperidin-4-yl)phenyl]amino}pyrazine-2-carboxamide], the IC50 is not above 10 nM at BTK-WT (Table 13, A compounds) and 10 to 100 nM against TEC (setting [1]).
With `C=CC(=O)N1CCC[C@@H](Nc2nnc(C(N)=O)c(Nc3ccc(-c4ncco4)cc3)n2)C1` [Example E-40, (R)-3-(1-acryloylpiperidin-3-ylamino)-5-(4-(oxazol-2-yl)phenylamino)-1,2,4-triazine-6-carboxamide], the IC50 was not above 10 nM on BTK-WT (E compounds, Table 17) and not above 10 nM at TEC (E compounds, Table 17).
With `C[C@@H]1[C@H](NC(=O)c2ccc(C3CC3)cc2F)CCCN1c1cnc(C(N)=O)c(Nc2ccc(C(=O)N3CCN(C)CC3)cc2)n1` [Example A-122, 5-[(2R,3R)-3-(4-cyclopropyl-2-fluorobenzamido)-2-methylpiperidin-1-yl]-3-{[4-(4-methylpiperazine-1-carbonyl)phenyl]amino}pyr-azine-2-carboxamide], the IC50 is not above 10 nM on BTK-WT (Table 13, A compounds) and 10 to 100 nM at TEC (setting [1]).
Take `C[C@@H]1[C@H](NC(=O)c2ccc(C3CC3)nc2)CCCN1c1cnc(C(N)=O)c(Nc2cnn(C)c2)n1` [Example A-190, 5-((2R,3R)-3-(6-cyclopropylnicotinamido)-2-methylpiperidin-1-yl)-3-(1-methyl-1H-pyrazol-4-ylamino)pyr-azine-2-carboxamide]: the IC50 on BTK-WT (Table 13, A compounds) was not above 10 nM; against TEC (setting [1]) it was 10 to 100 nM.
Consider `C[C@@H]1[C@H](NC(=O)c2ccc(C3CC3)cc2F)CCCN1c1cnc(C(N)=O)c(Nc2ccc(CN3CCN(C)CC3)cc2)n1` [Example A-106, 5-[(2R,3R)-3-(4-cyclopropyl-2-fluorobenzamido)-2-methylpiperidin-1-yl]-3-({4-[(4-methylpiperazin-1-yl)meth-yl]phenyl}amino)pyrazine-2-carboxamide], for which the IC50 on BTK-WT (Table 13, A compounds) was not above 10 nM; on TEC (setting [1]) it was 10 to 100 nM.
For the compound `CCC(O)(CC)c1ccc(C(=O)N[C@@H]2CCCN(c3cnc(C(N)=O)c(Nc4cnn(C)c4)n3)[C@@H]2C)cc1` [Example E-151, 5-((2R,3R)-3-(4-(3-hydroxypentan-3-yl)benzamido)-2-methylpiperidin-1-yl)-3-((1-methyl-1H-pyrazol-4-yl)amino)pyrazine-2-carboxamide], the IC50 is not above 10 nM on BTK-WT (E compounds, Table 17) and not above 10 nM against TEC (E compounds, Table 17).
Consider `C[C@@H]1[C@H](NC(=O)c2ccc(C3CC3)c(Cl)c2)CCCN1c1cnc(C(N)=O)c(Nc2ccc(N3CCN(C)CC3)cc2)n1` [Example A-189, 5-((2R,3R)-3-(3-chloro-4-cyclopropylbenzamido)-2-methylpiperidin-1-yl)-3-(4-(4-methylpiperazin-1-yl)phenylamino)pyrazine-2-carboxamide], for which the IC50 at BTK-WT (Table 13, A compounds) was not above 10 nM; against TEC (setting [1]), 100 to 1000 nM.
Taken in the same sequence, the figures for `C[C@@H]1[C@H](NC(=O)c2ccc(C3CC3)cc2)CCCN1c1cnc(C(N)=O)c(Nc2cnn(C)c2)n1` [Example A-169, 5-[(2R,3R)-3-(4-cyclopropylbenzamido)-2-methylpiperidin-1-yl]-3-[(1-methyl-1H-pyrazol-4-yl)amino]pyrazine-2-carboxamide] were not above 10 nM and 10 to 100 nM.
Taken in the same sequence, the figures for `C[C@@H]1[C@H](NC(=O)c2ccc(C(C)(C)C)cc2)CCCN1c1cnc(C(N)=O)c(Nc2ccc(N3CCN(C)CC3)cc2)n1` [Example A-184, 5-[(2R,3R)-3-(4-tert-butylbenzamido)-2-methylpiperidin-1-yl]-3-{[4-(4-methylpiperazin-1-yl)phenyl]amino}pyrazine-2-carboxamide] were not above 10 nM and 10 to 100 nM.
Consider `CC(C)c1ccc(Nc2nc(N3CCC[C@@H](N4CCC[C@@H](Nc5cc(Cl)cc(C(F)(F)F)c5)C4=O)C3)nnc2C(N)=O)cc1` [Example E-128, 3-((3R,3′R)-3-((3-chloro-5-(trifluoromethyl)phenyl)amino)-2-oxo-[1,3′-bipiperidin]-1′-yl)-5-((4-isopropylphenyl)amino)-1,2,4-triazine-6-carboxamide], for which the IC50 lay in the range of 100 to 1000 nM at BTK-WT (E compounds, Table 17) and 1000 to 10000 nM against TEC (E compounds, Table 17).

The IC50 is the concentration needed to halve the response being measured.
